Laboratory results published in US20050203122A1, “Benzenesulfonic acid salts of clopidogrel, methods for preparing same, and pharmaceutical formulations thereof” (Helm AG, priority 2003, published 2005).
Structures can show the parent of a compound that is named as a salt. Where two headings read alike, the source gives them in different places.

How the values were obtained:
[1] = oxidizing, 5 h
[2] = solid stored at 80° C. for 20 h
Experimental: 50 mg of the respective salts were weighed separately into volumetric flasks (100 ml) and stored at 80° C. for 20 h.

[3] = for total impurities relative to the clopidogrel base: alkaline, 1N NaOH, 5 h
Experimental: 50 mg of the respective salts were separately weighed into volumetric flasks (100 ml), and 2 ml of 1N NaOH were added. The flasks were then stored either at room temperature for 5 h or at 80° C. for 5 h. After the end of the particular experiment and, where appropriate, cooling to room temperature, 2 ml of 1N HCl were added to each flask, and the volume was made up to 100 ml with the mobile phase.

[4] = acidic, 1N HCl, 5 h
[5] = neutral, water, 5 h
[6] = overall, in particular at room temperature
[7] = 40° and 60° C., 75% relative humidity, 15 days
[8] = Decrease in active ingredient content of adsorbates on storage at 40° or 60° C. and 75% relative humidity for 15 days; type: physicochemical
Description: The results are summarized in Table 5 below (content after 15 days (initial level standardized at 100%)).

[9] = room temperature, hydrochloride

| Molecule | total impurities relative to the clopidogrel base ([1]; 3% H2O2, 80° C.) [%] | total impurities relative to the clopidogrel base ([1]; 3% H2O2, room temperature) [%] | impurities by HPLC after heat [2] [%] | total impurities relative to the clopidogrel base ([3]; 80° C.) [%] | total impurities relative to the clopidogrel base ([3]; room temperature) [%] | total impurities relative to the clopidogrel base ([4]; 80° C.) [%] | total impurities relative to the clopidogrel base ([4]; room temperature) [%] | total impurities relative to the clopidogrel base ([5]; 80° C.) [%] | total impurities relative to the clopidogrel base ([5]; room temperature) [%] | other results |
| --- | --- | --- | --- | --- | --- | --- | --- | --- | --- | --- |
| COC(=O)[C@H](c1ccccc1Cl)N1CCc2sccc2C1 [Clopidogrel Hydrogensulfate, clopidogrel hydrogensulfate, reference compound] | 3.50 | 0.33 | 0.31 | 59.48 | 0.32 | 2.96 | 0.32 | 1.63 | 0.40 | – |
| clopidogrel benzenesulfonate [Clopidogrel Benzenesulfonate (Crystalline)] | – | – | 4.52 | 28.05 | 0.14 | 2.76 | 0.14 | 4.18 | 0.19 | stability compared with clopidogrel hydrogensulfate [6]: more stable; stability (decrease in content) compared with hydrogensulfate and hydrochloride [7]: best stability |
| COC(=O)[C@H](c1ccccc1Cl)N1CCc2sccc2C1 [Clopidogrel Hydrochloride, clopidogrel hydrochloride, reference compound] | – | – | – | – | – | – | – | – | – | total impurities relative to the clopidogrel base ([1]; 3% H2O2, 80° C., hydrochloride): 4.16%; total impurities relative to the clopidogrel base ([1]; 3% H2O2, room temperature, hydrochloride): 1.83%; impurities by HPLC after heat ([2]; hydrochloride): 32.43%; total impurities relative to the clopidogrel base ([3]; 80° C., hydrochloride): 72.89%; total impurities relative to the clopidogrel base [3, 9]: 1.86%; total impurities relative to the clopidogrel base ([4]; 80° C., hydrochloride): 3.31%; total impurities relative to the clopidogrel base [4, 9]: 1.86%; total impurities relative to the clopidogrel base ([5]; 80° C., hydrochloride): 4.33%; total impurities relative to the clopidogrel base [5, 9]: 1.84% |
| Clopidogrel besylate [Pure (free) salt] | – | – | – | – | – | – | – | – | – | content after 15 days (initial level standardized at 100%) ([8]; 40° C.): 103.32%; content after 15 days (initial level standardized at 100%) ([8]; 60° C.): 66.48% |
| clopidogrel benzenesulfonate [Clopidogrel Benzenesulfonate (Amorphous)] | 2.94 | 0.83 | 11.52 | 25.04 | 0.64 | 2.36 | 0.64 | 3.01 | 0.85 | stability compared with the hydrogensulfate and hydrochloride salts ([3]; alkaline conditions): considerably higher |
